# Read-outs that look alike come from different tables or passages of the source.
# Experiments:
# [1] = tested on: E. coli N281 (L22 mutation); format: cell-based, Escherichia coli; conditions: E. coli N281 L22 mutation
# [2] = tested on: E. coli AB301 (wild type); experiment: Erythromycin MIC with or without sub-MIC polymer; format: cell-based, Escherichia coli
# E. coli CI14213 = format: cell-based, Escherichia coli
# Procedure, shortened: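 Bacteria (10^5 per ml) are mixed into culture medium holding serially 2-fold diluted polymer, or into plain medium as control. Plates incubate 24 hours at 37 °C. Optical density at 620 nm then gives the inhibition of proliferation, from which MICs are taken.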
# MRSA 15918 = experiment: microbe, parasite or virus in culture; format: cell-based, Staphylococcus aureus; conditions: Staphylococcus aureus, MRSA; read-out: MIC
# Description: (§1) MICs were determined by microdilution susceptibility testing in 96-well plates (by Nunc) using inocula of 10^5 bacteria per ml. Cell populations were evaluated by optical density measurements at 620 nm and were calibrated against a set of standards. Hundred (100) μl of a bacterial suspension were added to 100 μl of culture medium (control) or to 100 μl of culture medium containing various polymer concentrations in 2-fold serial dilutions. Inhibition of proliferation was determined by optical density measurements at 620 nm after an incubation period of 24 hours at 37° C.
# (§2) The fractionary inhibitory (FIC) concentration index for combinations of two antimicrobial agents was calculated as follows: FIC index=FICA+FICB=A/MICA+B/MICB where A and B are the MIC values of agent A and agent B in the combination, MICA and MICB are the MICs of agent A and agent B alone, and FICA and FICB are the FICs of agent A and agent B.
# (§3) The FIC indexes were interpreted as follows: less than 0.5 indicates a clear re-sensitizing effect; from 0.5 to 4 indicates a marginal or null re-sensitizing effect; and over 4 indicates antagonism.
# ATCC 29213 = experiment: microbe, parasite or virus in culture; format: cell-based, Staphylococcus aureus; conditions: Staphylococcus aureus, ATCC29213; read-out: MIC
# Description: as §1, §2, §3
# MRSA 15903 = experiment: Sub-MIC time-kill curves (CFU counts); format: cell-based, Staphylococcus aureus
# Description: At the specified time points of incubation (37° C. under shaking), cultures were subjected to serial 10-fold dilutions (up to 10^6) by adding 50 μl of sample to 450 μl saline (0.85% NaCl). Cell counts were determined using the drop plate method (three 20-μl drops onto LB-agar plates). Plates were incubated at 37° C. and colonies were counted for the calculation after incubation for 24 hours.
# E. coli D21 = experiment: Antibiotic MIC with or without sub-MIC polymer (Tables 20, 21); format: cell-based, Escherichia coli
structure (smiles),measurement,setting,value
"CC[C@H]1OC(=O)[C@H](C)[C@@H](O[C@H]2C[C@@](C)(OC)[C@@H](O)[C@H](C)O2)[C@H](C)[C@@H](O[C@@H]2O[C@H](C)C[C@H](N(C)C)[C@H]2O)[C@](C)(O)C[C@@H](C)C(=O)[C@H](C)[C@@H](O)[C@]1(C)O [Erythromycin, erythromycin]",Antibiotic MIC,[1]; +¼ MIC C12K(NC8K)5NH2,512 µg/mL
same,Antibiotic MIC,[1]; +¼ MIC C12K(NC8K)7NH2,>512-512 μg/ml
same,Antibiotic MIC,[1]; +½ MIC C12K(NC8K)5NH2,16 to 32 µg/mL
same,Antibiotic MIC,[1]; +⅓ MIC C12K(NC8K)7NH2,512 µg/mL
same,Antibiotic MIC,"[1]; no OAK, Table 18",>512 µg/mL
same,Antibiotic MIC,"[1]; no OAK, Table 19",>512 µg/mL
same,Antibiotic MIC,[2]; +¼ MIC C12K(NC8K)5NH2,32 µg/mL
same,Antibiotic MIC,[2]; +¼ MIC C12K(NC8K)7NH2,32 µg/mL
same,Antibiotic MIC,[2]; +½ MIC C12K(NC8K)5NH2,8 µg/mL
same,Antibiotic MIC,[2]; +½ MIC C12K(NC8K)7NH2,4 to 8 µg/mL
same,Antibiotic MIC,[2]; +⅓ MIC C12K(NC8K)5NH2,16 to 32 µg/mL
same,Antibiotic MIC,[2]; +⅓ MIC C12K(NC8K)7NH2,16 to 32 µg/mL
"Cc1onc(-c2ccccc2)c1C(=O)N[C@@H]1C(=O)N2[C@@H]1SC(C)(C)[C@@H]2C(=O)O [Oxacillin, oxacillin]",activity of oxacillin alone,"E. coli CI14213; E. coli CI14213, 24 hours incubation",inactive
same,concentration up to which E. coli is insensitive to oxacillin,"E. coli CI14213; E. coli, oxacillin alone",> 512 µg/mL
same,MIC,MRSA 15918,64 µg/mL
same,MIC,ATCC 29213,0.09 µg/mL
same,reduction of bacterial counts compared to the most active single agent,"MRSA 15903; 24 hours, oxacillin 0.78 μM + NC12(KNC12K)2NH2 2.1 μM",4.7 log10 CFU/ml
same,surviving organisms below the starting inoculum,MRSA 15903; oxacillin 0.78 μM + NC12(KNC12K)2NH2 2.1 μM,0.76 log10 CFU/ml
same,"bactericidal activity, agent alone","MRSA 15903; sub-MIC time-kill, single agent",no bactericidal activity
"CC1(C)S[C@@H]2[C@H](NC(=O)Cc3ccccc3)C(=O)N2[C@H]1C(=O)O [Penicillin G, penicillin G]","Antibiotic MIC, None",E. coli D21; antibiotic alone (Table 20),512 µg/mL
same,"Antibiotic MIC, None",E. coli D21; antibiotic alone (Table 21),512 µg/mL
same,"Antibiotic MIC in presence of C12K(NC8K)5NH2 (SEQ ID NO: 3), +¼ MIC",E. coli D21; polymer at ¼ of its MIC,512 µg/mL
same,"Antibiotic MIC in presence of C12K(NC8K)7NH2 (SEQ ID NO: 4), +¼ MIC",E. coli D21; polymer at ¼ of its MIC,512 µg/mL
same,"Antibiotic MIC in presence of C12K(NC8K)5NH2 (SEQ ID NO: 3), +½ MIC",E. coli D21; polymer at ½ of its MIC,256 µg/mL
same,"Antibiotic MIC in presence of C12K(NC8K)7NH2 (SEQ ID NO: 4), +½ MIC",E. coli D21; polymer at ½ of its MIC,256 µg/mL
same,"Antibiotic MIC in presence of C12K(NC8K)5NH2 (SEQ ID NO: 3), +⅓ MIC",E. coli D21; polymer at ⅓ of its MIC,256 to 512 µg/mL
same,"Antibiotic MIC in presence of C12K(NC8K)7NH2 (SEQ ID NO: 4), +⅓ MIC",E. coli D21; polymer at ⅓ of its MIC,512 µg/mL
